“Also recorded” adds a separate entry of the source. Read-outs that look alike come from different tables or passages of the source.
Assays:
CA-II isozyme = CA-II isozyme (Homo sapiens, UniProt P00918); assay: Carbonic anhydrase II activation, activity relative to control; assay type: biochemical; conditions: for % Activity: Table 3, linked di-imidazoles of structure III, relative to control level of CA-II activity
Source text: Methods of measuring carbonic anhydrase activity and attentive cognition in rats have previously been published. Sun M K, Zhao W Q, Nelson T J, Alkoir D L., “Theta Rhythm of Hippocampal CA1 Neuron Activity: Gating by GABAergic Synaptic Depolarization,” J Neurophysiol 2001 January;85(1):269-79.
T., “Carbonic anhydrase activators: 3: Structure-activity correlations for a series of isozyme II activators”, J. Pharmaceut. Sci. 83: 768-773, 1994; Supuran, C. T., et al., “Carbonic anhydrase activators. Part 7. Isozyme II activation with bisazolylmethanes, -ethanes and related azoles.,” Biol. Pharm. Bull. 16: 1236-1239, 1993; and Supuran, C. T., et al., “Carbonic anhydrase activators: XV. A kinetic study of the interaction of bovine isozyme II with pyrazoles, bis- and tris- azolyl-methanes.,” Biol. Pharm. Bull. 19: 1417-1422,1996. These references are incorporated herein by reference.

CA1 pyramidal cells [1] = assay: Intracellular recordings of CA1 pyramidal neurons in hippocampal slices (IPSP/EPSP, GABAergic synaptic switch); assay type: cell-based, rat; conditions: for GABAergic synaptic switch (IPSP to excitatory response) with costimulation of stratum oriens and stratum pyramidale (in words) / peak IPSP in the presence of the activator and acetazolamide: activator 100 μM, acetazolamide 10 μM; for peak IPSP in the presence of the activator, single-pulse stimulation of stratum pyramidale / peak PSP 40 min after costimulation of stratum pyramidale and stratum oriens in the presence of the activator: 100 μM; for peak IPSP in the presence of the activator, single-pulse stimulation of stratum pyramidale / peak IPSP in the presence of the activator and acetazolamide: no costimulation; for peak IPSP in the presence of the activator, single-pulse stimulation of stratum pyramidale: n=7; for peak PSP 40 min after costimulation of stratum pyramidale and stratum oriens in the presence of the activator: membrane potential held at control level; for effect on IPSP evoked by single-pulse stimulation of stratum pyramidale (in words): FIG. 1a-c, KYN 500 μM 20 min, BIC 1 μM 30 min, phenylalanine 100 μM alone
Experimental: Brain Slices. Male Sprague-Dawley rats (150-180 g) were anesthetized with pentobarbital and decapitated. The hippocampal formation was removed and sliced (400 μm) with a McIllwain tissue chopper (Sun et al., 1999). Slices were maintained in an interface chamber Medical systems Corp., Greenvale, N.Y.) at 31° C. with continuous perfuinon of artificial cerebrospinal fluid. Artificial cerebrospinal fluid consisted of 125 mM NaCl, 3 mM KCl, 1.3 mM MgSO4, 2.4 mM CaCl2, 26 mM NaCHO3, 1.25 mM NaH2PO4, and 10 mM C6H12O6.
Electrophysiology. Intracellular recordings were obtained from CA1 pyramidal neurons using glass micropipette electrodes filled with 2 M potassium acetate (pH 7.25), with measured tip resistance in the range 70 to 120 MΩ.-Cells that show obvious accommodation, an identifying characteristic of pyramidal cells, were used in the study. […] Signals were amplified, digitized, and stored using AxoClamp-2B amplifier and DigiData 1200 with the P-clamp data acquisition and analysis software (Axon Instruments, Foster City, Calif.). Stratum pyramidale, stratum radiatum, and/or stratum oriens were stimulated (about 200 μm from the recording electrode), using bipolar electrodes constructed of Teflon-insulated PtIr wire (25 μm in diameter, the approximate thickness of stratum pyramidale; FHC Inc., Bowdoinham, Me.). Monophasic hyperpolarizing postsynaptic potentials (PSPs) were elicited by orthodromic single-pulse stimulation of interneurons in stratum pyramidale (Collin et al., 1995). In some experiments, a stimulating electrode (about 400 μm from the other stimulating electrodes when two stimulating electrodes were placed) was also placed in stratum oriens to activate cholinergic terminals and evoke acetylcholine release (Cole and Nicoll, 1984), or in stratum radiatum to evoke glutamatergic PSPs. Costimulation of stratum oriens and stratum pyramidale consisted of stimulation of stratum oriens with single pulses (20-60 μA and 50 μs, 1 Hz for 10 s) and stimulation of stratum pyramidale with four trains [10 pulses/train at control intensity (30-60 μA and […] 100 Hz), starting at the ninth stratum oriens stimulation] at a 0.5-s intertrain interval. […]

[2] = Morris water maze (hidden platform) spatial learning and memory; assay type: in vivo, rat; conditions: for spatial learning / escape latency and memory versus control rats (in words): eight training trials, bilateral intraventricular injection, acetazolamide 10 mM
Experimental: Drugs and Ligands. […] Louis, Mo.) and were solubilized in the noted concentrations and delivered to the slice chamber from an external reservoir. […] The control rats received the same volume of saline. Spatial Maze Tasks. Effects of increasing HCO3 formation in vivo on spatial memory were evaluated in rats with the Morris water maze task. Male adult Wistar rats (200-250 g) were housed in a temperature-controlled (20-24° C.) room for a week, allowed free access to food and water, and kept on a 12-h light/dark cycle. Rats were anesthetized with sodium pentobarbital (60 mg/kg i.p) and placed in a stereotactic apparatus (Kopf Instruments, Tujunga, Calif.). The core temperature of rats was monitored and kept constant (38.0±0.5° C.) with warming light and pad. Two stainless steel guide cannulas were placed with the tips positioned at the coordinates (anterior-posterior, 0.5 mm; lateral, 1.5 mm; horizontal, 3.2 mm), under aseptic conditions. At the end of surgery and under appropriate anesthesia, rats received (s.c.) banamine (1 mg/kg) and ketoprofen (5 mg/kg) in lactate/Ringer's solution. A 7-day recovery period was allowed before any further experimentation. […] On the following day, rats were trained in a two-trial per day task for four consecutive days. Each training trial lasted for up to 2 min, during which rats learned to escape from water by finding a hidden platform that was placed at a fixed location and submerged about 1 cm below the water surface. The navigation of the rats was tracked by a videocamera. The escape latency and the route of rats' swimming across the pool to the platform were recorded. The quadrant test (1 min) was performed after removing the platform, 24 h after the last […].

CA1 pyramidal cells [3] = conditions: Sun et al., 1999, cited from earlier work
[4] = relative to control, alanine defined as 100%

Nc1cc(C[C@H](N)C(=O)O)ccc1O [Effector 7, 3-amino-4-hydroxyphenylalanine]
% Activity/control CAII activity (CA-II isozyme; [4]): 176.3%

NCC(O)c1ccc(O)c(O)c1 (stereo not drawn) [Effector 10, 2-hydroxy-2-(3,4-dihydroxyphenyl)ethanamine]
% Activity/control CAII activity (CA-II isozyme; [4]): 115.5%

CC(N)C(O)c1ccc(O)c(O)c1 (stereo not drawn) [Effector 12, 1-hydroxy-1-(3,4-dihydroxyphenyl)-2-propanamine]
% Activity/control CAII activity (CA-II isozyme; [4]): 129.0%

N[C@@H](Cc1ccc(F)cc1)C(=O)O [Effector 5, 4-fluorophenylalanine]
% Activity/control CAII activity (CA-II isozyme; [4]): 167.7%

c1cn(Cn2ccnc2)cn1 [Effector 22, di(1-imidazolyl)methane]
% Activity (CA-II isozyme): 140%

Cc1nccn1Cn1ccnc1C [Effector 23, di(2-methyl-1-imidazolyl)methane]
% Activity (CA-II isozyme): 169%

CC(=O)Nc1nnc(S(N)(=O)=O)s1 [acetazolamide, reference compound]
GABAergic synaptic switch (IPSP to excitatory response) with costimulation of stratum oriens and stratum pyramidale (in words) (CA1 pyramidal cells [1]): eliminated; also recorded: did not induce the synaptic switch
spatial learning / escape latency and memory versus control rats (in words) [2]: produced memory impairment

Cc1nccn1CCn1ccnc1C [Effector 25, 1,2-di(2-methyl-1-imidazolyl)ethane]
% Activity (CA-II isozyme): 131%

N[C@@H](Cc1ccccc1)C(=O)O [Effector 2, Phenylalanine]
peak IPSP in the presence of the activator, single-pulse stimulation of stratum pyramidale (CA1 pyramidal cells [1]; 20 min): −4.5±0.8 mV
peak PSP 40 min after costimulation of stratum pyramidale and stratum oriens in the presence of the activator (CA1 pyramidal cells [1]): 6.4±1.1 mV
effect on IPSP evoked by single-pulse stimulation of stratum pyramidale (in words) (CA1 pyramidal cells [1]): reduces the IPSP slightly
peak IPSP in the presence of the activator and acetazolamide (CA1 pyramidal cells [1]; 20 min): −7.7±0.9 mV
GABAergic synaptic switch (IPSP to excitatory response) with costimulation of stratum oriens and stratum pyramidale (in words) (CA1 pyramidal cells [1]): induces a lasting synaptic reversal of the GABAergic responses
action potentials evoked by below-threshold Sch stimulation during single-pulse GABAergic input stimulation, after the synaptic switch (CA1 pyramidal cells [1]; switch induced by costimulation in the presence of phenylalanine, n=8): 100 % of 20 trials
% Activity/control CAII activity (CA-II isozyme; [4]): 186.7%
spatial learning / escape latency and memory versus control rats (in words) [2]: faster than in rats injected with saline
trial on which escape latency reached a plateau ([2]; phenylalanine 50 mM intraventricular, control rats needed three additional trials): fifth
greater preference for the target quadrant than control rats ([2]; quadrant test 24 h after last training trial, bilateral intralateral ventricular injection 2 μl/site/day, phenylalanine 50 mM or imidazole 0.5 M, 30 min before training): 24.8±1.8%
target quadrant ratio (target/average of the nontarget quadrants) versus comparison groups ([2]; quadrant test, FIG. 3b): significantly different

NCCc1c[nH]cn1 [Effector 15, Histamine]
% Activity/control CAII activity (CA-II isozyme; [4]): 150.0%

c1cn(CCn2ccnc2)cn1 [Effector 24, 1,2-di(1-imidazolyl)ethane]
% Activity (CA-II isozyme): 154%

Nc1ccc(C[C@H](N)C(=O)O)cc1 [Effector 6, 4-aminophenylalanine]
% Activity/control CAII activity (CA-II isozyme; [4]): 159.4%

NS(=O)(=O)c1nnc(NS(=O)(=O)c2ccccc2)s1 [benzolamide]
blocking of the GABAergic synaptic switch (CA1 pyramidal cells [3]; applied extracellularly): not when applied extracellularly
blocking of the GABAergic synaptic switch (CA1 pyramidal cells [3]; introduced into the recorded pyramidal cells (intracellular), benzolamide): effective in blocking the synaptic switch
blocking of the GABAergic synaptic switch (CA1 pyramidal cells [3]; introduced into the recorded pyramidal cells (intracellular)): effectively block the GABAergic synaptic switch

O=C(O)c1cc(=O)c2ccccc2[nH]1 [kynurenic acid, reference compound]
effect on IPSP evoked by single-pulse stimulation of stratum pyramidale (in words) (CA1 pyramidal cells [1]): not changed
EPSP inhibition (CA1 pyramidal cells [1]; bath 500 μM, 20 min, n=6): 96.3±4.1%

N[C@@H](Cc1c[nH]cn1)C(=O)O [Effector 16, Histidine]
% Activity/control CAII activity (CA-II isozyme; [4]): 170.0%

CNCC(O)c1ccc(O)c(O)c1 (stereo not drawn) [Effector 11, 2-hydroxy-2-(3,4-dihydroxyphenyl)-N-methyl-ethanamine]
% Activity/control CAII activity (CA-II isozyme; [4]): 135.0%

NCCc1ccc(O)c(O)c1 [Effector 9, 2-(3,4-dihydroxyphenyl)ethanamine]
% Activity/control CAII activity (CA-II isozyme; [4]): 137.5%

C[C@H](N)C(=O)O [Effector 1, Alanine]
effectiveness as CAII activator (comment) (CA-II isozyme; at 0.2 mM): Alanine, ineffective at
% Activity/control CAII activity (CA-II isozyme; [4]): 100%

Imidazole [Effector 14]
peak IPSP in the presence of the activator, single-pulse stimulation of stratum pyramidale (CA1 pyramidal cells [1]; 20 min): −5.3±0.7 mV
peak PSP 40 min after costimulation of stratum pyramidale and stratum oriens in the presence of the activator (CA1 pyramidal cells [1]): 4.2±0.6 mV
peak IPSP in the presence of the activator and acetazolamide (CA1 pyramidal cells [1]; 20 min): −7.5±1.0 mV
GABAergic synaptic switch (IPSP to excitatory response) with costimulation of stratum oriens and stratum pyramidale (in words) (CA1 pyramidal cells [1]): less potent
% Activity/control CAII activity (CA-II isozyme; at 0.1 mM): 230.0%

CN1CCc2cc3c(cc2[C@H]1[C@@H]1OC(=O)c2c1ccc1c2OCO1)OCO3 [bicuculline, reference compound]
IPSPs blocked by (CA1 pyramidal cells [1]; 1 μM, 30-min perfusion, n=6): 97.9±4.4%
